These results are taken from patent EP3722296B1, “DIHYDRONAPHTHYRIDINES AND RELATED COMPOUNDS USEFUL AS KINASE INHIBITORS FOR THE TREATMENT OF PROLIFERATIVE DISEASES” (Deciphera Pharmaceuticals, LLC, priority 2012, dated 2013).

The target in one experiment is T1, c-KIT D816V kinase (Homo sapiens, UniProt P10721, D816V).
T1 construct: residues T544-V976 with N-terminal GST fusion; purchased deCODE Biostructures
Put plainly: c-KIT D816V kinase Assay. Conditions: enzymatic assay, ATP 200 uM. In kind it is biochemical. The method, boiled down: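 Coupled assay in which NADH oxidation was tracked as decreasing absorbance at 340 nm, continuously for 5 hours at 30 °C after adding serially diluted compound. Enzyme: cKit residues T544-V976 with N-terminal tag, GST fusion and TEV cleavage site.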

The target of a further experiment is T2, c-KIT VVDV kinase (Homo sapiens, UniProt P10721, D816V/DEL559-560).
T2 construct: This construct contains residues T544-V976 of cKit; GST (N); TEV cleavage site (internal); purchased deCODE Biostructures
Put plainly: cKIT-VVDV kinase Assay. In kind it is biochemical. Conditions: enzymatic assay; V559+V560 deletions and D816V mutation. The method, then:
In this assay, the oxidation of NADH (measured by decrease in absorbance at 340 nm) was continuously monitored spectrophotometrically. […] The inhibition reaction was started by mixing serial diluted test compound with the above reaction mixture. The absorption at 340 nm was monitored continuously for 5 hours at 30 °C on Synergy 2 plate reader (BioTech). […] The protein construct was prepared by deCODE Biostructures using procedures known in the art. […] This construct is identical to Seq ID no.

Experiment [1] concerns the target T3, Phospho-KIT (Tyr719) (Homo sapiens, UniProt P10721, K642E).
T3 construct: endogenous in cells; host or cells: GIST882
Put plainly: GIST882 KIT Western Blot. The format is cell-based. As to conditions: GIST882 cells, 4 hours, serum-free medium; read-out: pKIT suppression by western blot analysi GIST 882. The method, then:
(§1) GIST48, GIST430, and GIST882 cells were obtained from J. Fletcher (Brigham and Women's Hospital, Boston, MA). GIST T1 cells were obtained from B. Rubin (Cleveland Clinic, Cleveland, OH) and Professor Takahiro Taguchi (Kochi Medical School, Nankoku, Kochi, Japan). […] GIST430 cells were grown in Ham's F10 medium supplemented with 15% characterized fetal bovine serum (Invitrogen, Carlsbad, CA), 30 mg/L bovine pituitary extract (BD Biosciences, San Jose, CA), 0.5% Mito+ serum extender (BD Biosciences, San Jose, CA), 1 unit/mL penicillin G, 1 µg/ml streptomycin, and 0.29 mg/mL L-glutamine at 37 °C, 5%CO2, 95% humidity. GIST T1 cells were grown in DMEM medium supplemented with 10% characterized fetal bovine serum (Invitrogen, Carlsbad, CA), 1 unit/mL penicillin G, 1 µg/ml streptomycin, and 0.29 mg/mL L-glutamine at 37 °C, 5% CO2, and 95% humidity.
(§2) Two hundred fifty thousand cells were added per well in a 24-well tissue-culture treated plate. […] Medium was aspirated, cells were washed with PBS, and serum-free RPMI1640 medium was added. […] Cells were washed with PBS, then lysed. Cell lysates were separated by SDS-PAGE and transferred to PVDF. Phospho-KIT (Tyr719) was detected using an antibody from Cell Signaling Technology (Beverly, MA), ECL Plus detection reagent (GE Healthcare, Piscataway, NJ) and a Molecular Devices Storm 840 phosphorimager in fluorescence mode. Blots were stripped and probed for total KIT using an antibody from Santa Cruz Biotech (Santa Cruz, CA). IC50 values were calculated using Prism software (Graphpad, San Diego, CA).
(Immunoblotting shows a protein as a band on a membrane.)

For experiment [2], the system named is Phospho-KIT (Tyr719). Put plainly: GIST48 KIT Western Blot. Conditions: GIST48 cells, 4 hours, serum-free medium; read-out: pKIT suppression by western blot analysi GIST48. The format is cell-based. The method, boiled down:
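Phospho-KIT (Tyr719) was immunoblotted on PVDF and imaged in fluorescence mode after ECL Plus, with stripping and reprobing for total KIT. IC50 values were derived from the blot signals.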

Experiment [3] has as its system Phospho-KIT (Tyr719). Put plainly: GIST430 KIT Western Blot. Conditions: GIST430 cells, 4 hours, serum-free medium; read-out: pKIT suppression by western blot analysi GIST430. The format is cell-based. On the procedure:
as §1
as §2, with “One” for “Two”, “Ham's F10” for “RPMI1640”

The next experiment has as its target T4, c-KIT D816H kinase (Homo sapiens, UniProt P10721, D816H).
T4 construct: The construct contains residues T544-V976 of cKit; GST (N); TEV cleavage site (internal); purchased deCODE Biostructures
Put plainly: c-KIT D816H Kinase Assay. In kind it is biochemical. Conditions: enzymatic assay, ATP 200 µM. The method, boiled down: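 Mutant cKit enzyme, expressed as a GST-fusion construct carrying an N-terminal tag and TEV site, was mixed with serially diluted compound to start reactions. Activity tracked via NADH consumption, read continuously at 340 nm over 6 hours at 30 °C.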

A further experiment deals with c-KIT kinase (Homo sapiens, UniProt P10721). Put plainly: c-KIT kinase Assay. In kind it is biochemical. Details: cKIT residues T544-V976; GST (N); TEV cleavage site (internal); purchased deCODE Biostructures. As to conditions: enzymatic assay, ATP 200 µM; read-out: KIT (wt) IC50. The method, boiled down:
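This continuous spectrophotometric assay tracked c-KIT kinase turnover through NADH consumption at 340 nm, recorded for 2 hours at 30 °C. The enzyme construct from deCODE Biostructures carried an N-terminal tag, a GST-fusion sequence and a TEV cleavage site. Percent inhibition came from reaction rates over 0 to 1 h relative to a no-compound control, and IC50 values were derived with GraphPad Prism.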

For the next experiment, the target named is T5, c-KIT T670I kinase (Homo sapiens, UniProt P10721, T670I).
T5 construct: The construct contains residues T544-V976 of cKit; GST (N); TEV cleavage site (internal); purchased deCODE Biostructures
Put plainly: c-KIT T670I kinase assay. In kind it is biochemical. As to conditions: enzymatic assay. The method, boiled down:
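Enzyme: GST-fused, N-terminally tagged cKit bearing T670I, with TEV cleavage site. Reaction started by mixing compound dilutions with reaction mix; activity read continuously over 5 h at 30 °C as loss of 340 nm absorbance from NADH consumption.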

The next experiment concerns the target T6, c-KIT V654A kinase (Homo sapiens, UniProt P10721, V654A).
T6 construct: residues T544-V976 with N-terminal GST fusion; purchased deCODE Biostructures
Put plainly: c-KIT V654A Kinase Assay. As to conditions: enzymatic assay, ATP 200 µM. In kind it is biochemical. The essentials:
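Kinase activity tracked by coupled NADH consumption, monitored continuously at 340 nm over 6 h at 30 °C after serially diluted compound was mixed in to start inhibition. Enzyme used was a GST-fused, N-terminally tagged cKIT T544–V976 construct with a TEV cleavage site.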

Another experiment concerns GIST T1 cells. Put plainly: GIST T1 Cell Proliferation Assay. As to conditions: Homo sapiens, GISTT1, 72 h, 68 hours + 4 hours resazurin. In kind it is cell-based. On the technique in general: Resazurin is reduced to fluorescent resorufin, in cell work by metabolically active cells.

T6 sequence (P10721 544-976 V654A): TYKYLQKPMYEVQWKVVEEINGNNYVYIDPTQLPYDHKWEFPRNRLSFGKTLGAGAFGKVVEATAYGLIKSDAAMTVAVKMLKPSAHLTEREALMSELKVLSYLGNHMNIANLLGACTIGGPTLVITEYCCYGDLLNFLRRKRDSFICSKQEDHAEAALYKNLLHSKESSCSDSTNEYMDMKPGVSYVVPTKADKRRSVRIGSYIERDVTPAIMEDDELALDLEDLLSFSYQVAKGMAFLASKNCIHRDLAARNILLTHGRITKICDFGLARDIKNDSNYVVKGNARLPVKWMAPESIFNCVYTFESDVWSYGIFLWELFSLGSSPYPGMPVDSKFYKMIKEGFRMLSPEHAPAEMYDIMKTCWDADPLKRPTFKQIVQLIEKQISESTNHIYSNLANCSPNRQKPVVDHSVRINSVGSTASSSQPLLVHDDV
c-KIT kinase, sequence (P10721 544-976): as the sequence (P10721 544-976 V654A) above, with A111V counted along it
T1 sequence (P10721 544-976 D816V): as the sequence (P10721 544-976 V654A) above, with A111V, D273V counted along it
T5 sequence (P10721 544-976 T670I): as the sequence (P10721 544-976 V654A) above, with A111V, T127I counted along it
T2 sequence (P10721 with tags, fused parts or gaps DEL559-560/D816V): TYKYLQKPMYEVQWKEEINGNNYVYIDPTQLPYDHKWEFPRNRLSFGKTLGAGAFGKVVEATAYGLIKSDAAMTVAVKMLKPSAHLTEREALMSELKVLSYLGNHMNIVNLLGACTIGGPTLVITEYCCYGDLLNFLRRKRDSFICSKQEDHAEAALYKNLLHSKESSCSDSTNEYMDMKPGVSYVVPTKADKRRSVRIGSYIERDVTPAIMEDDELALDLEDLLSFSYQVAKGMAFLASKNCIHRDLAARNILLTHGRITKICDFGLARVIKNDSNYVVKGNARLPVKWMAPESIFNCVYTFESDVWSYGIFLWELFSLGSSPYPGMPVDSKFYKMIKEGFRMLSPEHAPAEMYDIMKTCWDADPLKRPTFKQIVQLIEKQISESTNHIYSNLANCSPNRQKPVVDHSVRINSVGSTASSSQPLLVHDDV
T4 sequence (P10721 544-976 D816H): as the sequence (P10721 544-976 V654A) above, with A111V, D273H counted along it
T3 sequence (P10721 26-976 K642E): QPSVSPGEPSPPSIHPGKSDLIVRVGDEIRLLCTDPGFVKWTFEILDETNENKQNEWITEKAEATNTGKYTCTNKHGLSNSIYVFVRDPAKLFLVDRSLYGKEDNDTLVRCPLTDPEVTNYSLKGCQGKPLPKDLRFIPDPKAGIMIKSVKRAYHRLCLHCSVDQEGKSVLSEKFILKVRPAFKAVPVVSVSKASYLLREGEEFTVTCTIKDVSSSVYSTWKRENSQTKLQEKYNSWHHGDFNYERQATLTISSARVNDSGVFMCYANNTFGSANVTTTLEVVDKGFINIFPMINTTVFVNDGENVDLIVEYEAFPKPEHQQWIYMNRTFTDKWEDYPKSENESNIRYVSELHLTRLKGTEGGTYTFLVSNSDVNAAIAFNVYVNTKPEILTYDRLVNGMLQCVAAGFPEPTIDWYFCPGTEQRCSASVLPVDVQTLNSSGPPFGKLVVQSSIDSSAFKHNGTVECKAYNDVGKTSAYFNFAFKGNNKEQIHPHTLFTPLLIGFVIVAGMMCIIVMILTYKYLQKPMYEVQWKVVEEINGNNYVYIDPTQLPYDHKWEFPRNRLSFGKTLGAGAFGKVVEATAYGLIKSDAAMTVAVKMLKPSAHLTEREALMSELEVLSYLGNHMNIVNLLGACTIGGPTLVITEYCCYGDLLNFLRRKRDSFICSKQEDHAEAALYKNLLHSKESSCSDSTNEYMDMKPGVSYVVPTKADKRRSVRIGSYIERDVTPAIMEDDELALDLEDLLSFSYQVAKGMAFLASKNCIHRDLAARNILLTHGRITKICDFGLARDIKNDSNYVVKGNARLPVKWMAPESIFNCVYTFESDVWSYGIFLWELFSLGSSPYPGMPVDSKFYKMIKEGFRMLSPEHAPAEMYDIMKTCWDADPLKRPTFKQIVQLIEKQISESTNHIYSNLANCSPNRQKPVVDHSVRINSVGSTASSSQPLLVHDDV

Take `CCn1c(=O)c(-c2cc(NC(=O)Nc3cccc4ccccc34)c(F)cc2C)cc2cnc(NC)cc21` [Example 1, 1-(5-(1-ethyl-7-(methylamino)-2-oxo-1,2-dihydro-1,6-naphthyridin-3-yl)-2-fluoro-4-methylphenyl)-3-(naphthalen-1-yl)urea]: the IC50 was 10 to 100 nM at c-KIT D816V kinase; 10 to 100 nM on c-KIT VVDV kinase; 100 to 1000 nM on Phospho-KIT (Tyr719) [1]; 10 to 100 nM with Phospho-KIT (Tyr719) [2]; under 10 nM in the experiment on Phospho-KIT (Tyr719) [3]; 10 to 100 nM on c-KIT D816H kinase. In addition, the IC50 on c-KIT kinase and at c-KIT T670I kinase was under 10 nM throughout.
With `CNc1cc2c(cn1)cc(-c1cc(NC(=O)Nc3csc4ccccc34)c(F)cc1F)c(=O)n2C` [Example 14, 1-(benzo[b]thiophen-3-yl)-3-(2,4-difluoro-5-(1-methyl-7-(methylamino)-2-oxo-1,2-dihydro-1,6-naphthyridin-3-yl)phenyl)urea], the IC50 on c-KIT D816V kinase was 10 to 100 nM; at c-KIT VVDV kinase, 10 to 100 nM; at Phospho-KIT (Tyr719) [1], under 10 nM; in the experiment on Phospho-KIT (Tyr719) [2], under 10 nM; in the experiment with Phospho-KIT (Tyr719) [3] it was 10 to 100 nM; on c-KIT T670I kinase, under 10 nM.
For the compound `CCn1c(=O)c(-c2cc(NC(=O)Nc3cccc(F)c3)c(F)cc2F)cc2cnc(NC)cc21` [Example 15, 1-(5-(1-ethyl-7-(methylamino)-2-oxo-1,2-dihydro-1,6-naphthyridin-3-yl)-2,4-difluorophenyl)-3-(3-fluorophenyl)urea], the IC50 on c-KIT D816V kinase was 10 to 100 nM; at c-KIT VVDV kinase, 10 to 100 nM; on Phospho-KIT (Tyr719) [1], 10 to 100 nM; in the experiment with Phospho-KIT (Tyr719) [2], 10 to 100 nM; in the experiment on Phospho-KIT (Tyr719) [3], 10 to 100 nM; on c-KIT V654A kinase, under 10 nM. In addition, the IC50 was 10 to 100 nM at c-KIT D816H kinase, under 10 nM on c-KIT kinase and 10 to 100 nM on c-KIT T670I kinase.
Turning to `CCn1c(=O)c(-c2cc(NC(=O)Nc3ccccc3)c(F)cc2F)cc2cnc(NC)cc21` [Example 16, 1-(5-(1-ethyl-7-(methylamino)-2-oxo-1,2-dihydro-1,6-naphthyridin-3-yl)-2,4-difluorophenyl)-3-phenylurea], the IC50 at c-KIT D816V kinase is 10 to 100 nM; on c-KIT VVDV kinase it was 10 to 100 nM; at Phospho-KIT (Tyr719) [1], 10 to 100 nM; with Phospho-KIT (Tyr719) [2] it was 100 to 1000 nM; in the experiment with Phospho-KIT (Tyr719) [3], 100 to 1000 nM; at c-KIT V654A kinase, under 10 nM. The figures for the IC50 on c-KIT D816H kinase, at c-KIT kinase and on c-KIT T670I kinase were 10 to 100 nM, under 10 nM and 10 to 100 nM, respectively.
With `CCn1c(=O)c(-c2cc(NC(=O)Nc3ccccc3)ccc2Cl)cc2cnc(NC)cc21` [Example 33, 1-(4-chloro-3-(1-ethyl-7-(methylamino)-2-oxo-1,2-dihydro-1,6-naphthyridin-3-yl)phenyl)-3-phenylurea], the IC50 on c-KIT D816V kinase was 10 to 100 nM; on c-KIT VVDV kinase, 100 to 1000 nM; with Phospho-KIT (Tyr719) [3], 10 to 100 nM; on c-KIT V654A kinase, under 10 nM; at c-KIT D816H kinase, 10 to 100 nM; on c-KIT kinase, under 10 nM. In addition, at c-KIT T670I kinase, the IC50 is 100 to 1000 nM.
On to `CCn1c(=O)c(-c2cc(NC(=O)Nc3ccccc3)c(F)cc2F)cc2cnc(NCCOC)cc21` [Example 36, 1-(5-(1-ethyl-7-(2-methoxyethylamino)-2-oxo-1,2-dihydro-1,6-naphthyridin-3-yl)-2,4-difluorophenyl)-3-phenylurea], for which the IC50 on c-KIT D816V kinase was 10 to 100 nM; on c-KIT VVDV kinase, 10 to 100 nM; with Phospho-KIT (Tyr719) [2], 100 to 1000 nM; with Phospho-KIT (Tyr719) [3] it was 100 to 1000 nM; on c-KIT V654A kinase, 10 to 100 nM; on c-KIT D816H kinase, 10 to 100 nM. Besides, the IC50 on c-KIT kinase is under 10 nM; at c-KIT T670I kinase it was 100 to 1000 nM.
For `CCn1c(=O)c(-c2cc(NC(=O)Nc3cccc(F)c3)c(F)cc2C)cc2cnc(NC3CC3)cc21` [Example 45, 1-(5-(7-(cyclopropylamino)-1-ethyl-2-oxo-1,2-dihydro-1,6-naphthyridin-3-yl)-2-fluoro-4-methylphenyl)-3-(3-fluorophenyl)urea], the IC50 on c-KIT D816V kinase was 10 to 100 nM; at c-KIT VVDV kinase, over 1000 nM; on c-KIT V654A kinase, 10 to 100 nM; on c-KIT D816H kinase, 10 to 100 nM; on c-KIT kinase, under 10 nM; at c-KIT T670I kinase it was 10 to 100 nM.
With `CCn1c(=O)c(-c2cc(NC(=O)Nc3ccccc3)c(F)cc2Cl)cc2cnc(NC(=O)N3CC[C@@H](N(C)C)C3)cc21` [Example 84, (R)-N-(3-(2-chloro-4-fluoro-5-(3-phenylureido)phenyl)-1-ethyl-2-oxo-1,2-dihydro-1,6-naphthyridin-7-yl)-3-(dimethylamino)pyrrolidine-1-carboxamide], the IC50 at c-KIT D816V kinase is 10 to 100 nM; at Phospho-KIT (Tyr719) [1] it was 10 to 100 nM; in the experiment on Phospho-KIT (Tyr719) [2] it was 10 to 100 nM; in the experiment on Phospho-KIT (Tyr719) [3] it was 10 to 100 nM; on c-KIT V654A kinase, 100 to 1000 nM; on c-KIT D816H kinase it was 10 to 100 nM. The IC50 on c-KIT kinase was under 10 nM; on c-KIT T670I kinase it was 10 to 100 nM.
Turning to `CC(=O)Nc1cc2c(cn1)cc(-c1cc(NC(=O)Nc3ccccc3)c(F)cc1Cl)c(=O)n2C(C)C` [Example 86, N-(3-(2-chloro-4-fluoro-5-(3-phenylureido)phenyl)-1-isopropyl-2-oxo-1,2-dihydro-1,6-naphthyridin-7-yl)acetamide], the IC50 at c-KIT D816V kinase is under 10 nM; at Phospho-KIT (Tyr719) [1] it was under 10 nM; in the experiment on Phospho-KIT (Tyr719) [2] it was under 10 nM; in the experiment with Phospho-KIT (Tyr719) [3] it was 10 to 100 nM; at c-KIT V654A kinase, 10 to 100 nM; in the experiment with GIST T1 cells it was under 10 nM. The results for the IC50 on c-KIT kinase and on c-KIT T670I kinase were under 10 nM and 10 to 100 nM, respectively.
